Experimental data taken from patent US20230151025A1, “SUBSTITUTED THIAZOLOPYRIDINES, SALTS THEREOF AND THEIR USE AS HERBICIDALLY ACTIVE SUBSTANCES” (Bayer Aktiengesellschaft, priority 2020, published 2023).

Tested on: Echinochloa crus-galli (ECHCG)
Test: Herbicidal post-emergence action (D), 320 g/ha
Assay type: in vivo
Details: ca. 3 weeks
Procedure, shortened: (§1)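 Seedlings reaching the single-leaf stage 2 to 3 weeks after sowing in sandy loam received a foliar spray of the formulated compound (WP or EC, 0.5% additive, 600 l water/ha). Damage is rated visually after about 3 weeks in the greenhouse as percent effect relative to untreated plants.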

SMILES | herbicidal effect ECHCG
c1ccc(-c2ccc3scnc3n2)cc1 [Example I-010] | 90%
Fc1ccc(-c2nc3ncsc3cc2Cl)c(F)c1 [Example I-127] | 90%

Tested on: Amaranthus retroflexus (AMARE)
Test: Herbicidal post-emergence action (D), 320 g/ha
Assay type: in vivo
Details: ca. 3 weeks
Procedure, shortened: as §1

SMILES | herbicidal effect AMARE
c1ccc(-c2ccc3scnc3n2)cc1 [Example I-010] | 80%

Tested on: Alopecurus myosuroides (ALOMY)
Test: Herbicidal post-emergence action (D), 320 g/ha
Assay type: in vivo
Details: ca. 3 weeks
Procedure, shortened: as §1

SMILES | herbicidal effect ALOMY
c1ccc(-c2ccc3scnc3n2)cc1 [Example I-010] | 90%
Fc1ccc(-c2nc3ncsc3cc2Cl)c(F)c1 [Example I-127] | 90%

Tested on: Abutilon theophrasti (ABUTH)
Test: Herbicidal post-emergence action (D), 320 g/ha
Assay type: in vivo
Details: ca. 3 weeks
Procedure, shortened: as §1

SMILES | herbicidal effect ABUTH
c1ccc(-c2ccc3scnc3n2)cc1 [Example I-010] | 80%
Fc1ccc(-c2nc3ncsc3cc2Cl)c(F)c1 [Example I-127] | 80%

Tested on: Veronica persica (VERPE)
Test: Herbicidal post-emergence action (D), 320 g/ha
Assay type: in vivo
Details: ca. 3 weeks
Procedure, shortened: as §1

SMILES | herbicidal effect VERPE
Fc1ccc(-c2nc3ncsc3cc2Cl)c(F)c1 [Example I-127] | 80%

Tested on: Setaria viridis (SETVI)
Test: Herbicidal post-emergence action (D), 320 g/ha
Assay type: in vivo
Details: ca. 3 weeks
Procedure, shortened: as §1

SMILES | herbicidal effect SETVI
Fc1ccc(-c2nc3ncsc3cc2Cl)c(F)c1 [Example I-127] | 90%

Tested on: Viola tricolor (VIOTR)
Test: Herbicidal post-emergence action (D), 320 g/ha
Assay type: in vivo
Details: ca. 3 weeks
Procedure, shortened: as §1

SMILES | herbicidal effect VIOTR
Fc1ccc(-c2nc3ncsc3cc2Cl)c(F)c1 [Example I-127] | 80%

Tested on: Polygonum convolvulus (POLCO)
Test: Herbicidal post-emergence action (D), 320 g/ha
Assay type: in vivo
Details: ca. 3 weeks
Procedure, shortened: as §1

SMILES | herbicidal effect POLCO
Fc1ccc(-c2nc3ncsc3cc2Cl)c(F)c1 [Example I-127] | 90%

Tested on: Echinochloa crus-galli (ECHCG)
Test: Herbicidal pre-emergence action (A), 1280 g/ha
Assay type: in vivo
Details: visual grading after ca. 3 weeks vs untreated controls, 100% = plants have died off, 0% = as control plants
Procedure, shortened: (§2)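 Visual grading of plant damage in percent (0% as untreated control, 100% dead) was done about 3 weeks after treatment. Compounds, as WP or EC in water with 0.5% additive, had been sprayed at 600 l/ha onto the covering soil of freshly sown sandy loam pots.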

SMILES | ECHCG, herbicidal effect in percent (%)
c1ccc(-c2ccc3scnc3n2)cc1 [Example I-010] | 100%

Tested on: Amaranthus retroflexus (AMARE)
Test: Herbicidal pre-emergence action (A), 1280 g/ha
Assay type: in vivo
Details: visual grading after ca. 3 weeks vs untreated controls
Procedure, shortened: as §2

SMILES | herbicidal effect AMARE
c1ccc(-c2ccc3scnc3n2)cc1 [Example I-010] | 90%

Tested on: Kochia scoparia (KCHSC; Bassia scoparia)
Test: Herbicidal pre-emergence action (A), 1280 g/ha
Assay type: in vivo
Details: visual grading after ca. 3 weeks vs untreated controls
Procedure, shortened: as §2

SMILES | herbicidal effect KCHSC
c1ccc(-c2ccc3scnc3n2)cc1 [Example I-010] | 90%

Tested on: Alopecurus myosuroides (ALOMY)
Test: Herbicidal pre-emergence action (A), 1280 g/ha
Assay type: in vivo
Details: visual grading after ca. 3 weeks vs untreated controls, 100% = plants have died off, 0% = as control plants
Procedure, shortened: as §2

SMILES | ALOMY, herbicidal effect in percent (%)
c1ccc(-c2ccc3scnc3n2)cc1 [Example I-010] | 100%

Tested on: Lolium rigidum (LOLRI)
Test: Herbicidal pre-emergence action (A), 1280 g/ha
Assay type: in vivo
Details: visual grading after ca. 3 weeks vs untreated controls, 100% = plants have died off, 0% = as control plants
Procedure, shortened: as §2

SMILES | LOLRI, herbicidal effect in percent (%)
c1ccc(-c2ccc3scnc3n2)cc1 [Example I-010] | 100%

Tested on: Digitaria sanguinalis (DIGSA)
Test: Herbicidal pre-emergence action (A), 1280 g/ha
Assay type: in vivo
Details: visual grading after ca. 3 weeks vs untreated controls, 100% = plants have died off, 0% = as control plants
Procedure, shortened: as §2

SMILES | DIGSA, herbicidal effect in percent (%)
c1ccc(-c2ccc3scnc3n2)cc1 [Example I-010] | 100%

Tested on: Veronica persica (VERPE)
Test: Herbicidal pre-emergence action (A), 1280 g/ha
Assay type: in vivo
Details: visual grading after ca. 3 weeks vs untreated controls
Procedure, shortened: as §2

SMILES | herbicidal effect VERPE
c1ccc(-c2ccc3scnc3n2)cc1 [Example I-010] | 90%

Tested on: Poa annua (POAAN)
Test: Herbicidal pre-emergence action (A), 1280 g/ha
Assay type: in vivo
Details: visual grading after ca. 3 weeks vs untreated controls, 100% = plants have died off, 0% = as control plants
Procedure, shortened: as §2

SMILES | POAAN, herbicidal effect in percent (%)
c1ccc(-c2ccc3scnc3n2)cc1 [Example I-010] | 100%

Tested on: Setaria viridis (SETVI)
Test: Herbicidal pre-emergence action (A), 1280 g/ha
Assay type: in vivo
Details: visual grading after ca. 3 weeks vs untreated controls
Procedure, shortened: as §2

SMILES | herbicidal effect SETVI
c1ccc(-c2ccc3scnc3n2)cc1 [Example I-010] | 100%

Tested on: Stellaria media (STEME)
Test: Herbicidal pre-emergence action (A), 1280 g/ha
Assay type: in vivo
Details: visual grading after ca. 3 weeks vs untreated controls
Procedure, shortened: as §2

SMILES | herbicidal effect STEME
c1ccc(-c2ccc3scnc3n2)cc1 [Example I-010] | 100%

Tested on: Matricaria inodora (MATIN)
Test: Herbicidal pre-emergence action (A), 1280 g/ha
Assay type: in vivo
Details: visual grading after ca. 3 weeks vs untreated controls
Procedure, shortened: as §2

SMILES | herbicidal effect MATIN
c1ccc(-c2ccc3scnc3n2)cc1 [Example I-010] | 100%

Tested on: Echinochloa crus-galli (ECHCG)
Test: Herbicidal post-emergence action (B), 1280 g/ha
Assay type: in vivo
Details: rated visually after about 3 weeks vs untreated controls
Procedure, shortened: (§3)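 Greenhouse-grown weeds at the one-leaf stage received a foliar spray of the formulated compound (WP or EC, 0.5% additive, 600 L/ha). Damage was scored visually after about 3 weeks on a 0–100% scale against untreated plants.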

SMILES | herbicidal activity ECHCG
c1ccc(-c2ccc3scnc3n2)cc1 [Example I-010] | 90%

Tested on: Amaranthus retroflexus (AMARE)
Test: Herbicidal post-emergence action (B), 1280 g/ha
Assay type: in vivo
Details: rated visually after about 3 weeks vs untreated controls
Procedure, shortened: as §3

SMILES | herbicidal activity AMARE
c1ccc(-c2ccc3scnc3n2)cc1 [Example I-010] | 100%

Tested on: Kochia scoparia (KCHSC; Bassia scoparia)
Test: Herbicidal post-emergence action (B), 1280 g/ha
Assay type: in vivo
Details: not given
Procedure, shortened: as §3

SMILES | herbicidal effect KCHSC
c1ccc(-c2ccc3scnc3n2)cc1 [Example I-010] | 100%

Tested on: Alopecurus myosuroides (ALOMY)
Test: Herbicidal post-emergence action (B), 1280 g/ha
Assay type: in vivo
Details: rated visually after about 3 weeks vs untreated controls
Procedure, shortened: as §3

SMILES | herbicidal activity ALOMY
c1ccc(-c2ccc3scnc3n2)cc1 [Example I-010] | 100%

Tested on: Digitaria sanguinalis (DIGSA)
Test: Herbicidal post-emergence action (B), 1280 g/ha
Assay type: in vivo
Details: rated visually after about 3 weeks vs untreated controls
Procedure, shortened: as §3

SMILES | herbicidal activity DIGSA
c1ccc(-c2ccc3scnc3n2)cc1 [Example I-010] | 100%

Tested on: Abutilon theophrasti (ABUTH)
Test: Herbicidal post-emergence action (B), 1280 g/ha
Assay type: in vivo
Details: rated visually after about 3 weeks vs untreated controls
Procedure, shortened: as §3

SMILES | herbicidal activity ABUTH
c1ccc(-c2ccc3scnc3n2)cc1 [Example I-010] | 100%

Tested on: Veronica persica (VERPE)
Test: Herbicidal post-emergence action (B), 1280 g/ha
Assay type: in vivo
Details: not given
Procedure, shortened: as §3

SMILES | herbicidal effect VERPE
c1ccc(-c2ccc3scnc3n2)cc1 [Example I-010] | 100%

Tested on: Poa annua (POAAN)
Test: Herbicidal post-emergence action (B), 1280 g/ha
Assay type: in vivo
Details: rated visually after about 3 weeks vs untreated controls
Procedure, shortened: as §3

SMILES | herbicidal activity POAAN
c1ccc(-c2ccc3scnc3n2)cc1 [Example I-010] | 100%

Tested on: Setaria viridis (SETVI)
Test: Herbicidal post-emergence action (B), 1280 g/ha
Assay type: in vivo
Details: rated visually after about 3 weeks vs untreated controls
Procedure, shortened: as §3

SMILES | herbicidal activity SETVI
c1ccc(-c2ccc3scnc3n2)cc1 [Example I-010] | 100%

Tested on: Stellaria media (STEME)
Test: Herbicidal post-emergence action (B), 1280 g/ha
Assay type: in vivo
Details: not given
Procedure, shortened: as §3

SMILES | herbicidal effect STEME
c1ccc(-c2ccc3scnc3n2)cc1 [Example I-010] | 100%

Tested on: Matricaria inodora (MATIN)
Test: Herbicidal post-emergence action (B), 1280 g/ha
Assay type: in vivo
Details: rated visually after about 3 weeks vs untreated controls
Procedure, shortened: as §3

SMILES | herbicidal activity MATIN
c1ccc(-c2ccc3scnc3n2)cc1 [Example I-010] | 100%

Tested on: Echinochloa crus-galli (ECHCG)
Test: Herbicidal pre-emergence action (C), 320 g/ha
Assay type: in vivo
Details: ca. 3 weeks
Procedure, shortened: (§4)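 Sandy loam pots, seeds covered with soil → WP/EC compound sprayed on soil surface (aq., +0.5% additive, 600 l/ha) → greenhouse, optimum growth → visual herbicidal effect (%) at ca. 3 wk vs untreated.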

SMILES | herbicidal effect ECHCG
c1ccc(-c2ccc3scnc3n2)cc1 [Example I-010] | 100%
Fc1ccc(-c2nc3ncsc3cc2Cl)c(F)c1 [Example I-127] | 100%

Tested on: Amaranthus retroflexus (AMARE)
Test: Herbicidal pre-emergence action (C), 320 g/ha
Assay type: in vivo
Details: ca. 3 weeks
Procedure, shortened: as §4

SMILES | herbicidal effect AMARE
c1ccc(-c2ccc3scnc3n2)cc1 [Example I-010] | 90%
Fc1ccc(-c2nc3ncsc3cc2Cl)c(F)c1 [Example I-127] | 80%

Tested on: Alopecurus myosuroides (ALOMY)
Test: Herbicidal pre-emergence action (C), 320 g/ha
Assay type: in vivo
Details: ca. 3 weeks
Procedure, shortened: as §4

SMILES | herbicidal effect ALOMY
c1ccc(-c2ccc3scnc3n2)cc1 [Example I-010] | 100%
Fc1ccc(-c2nc3ncsc3cc2Cl)c(F)c1 [Example I-127] | 90%

Tested on: Lolium rigidum (LOLRI)
Test: Herbicidal pre-emergence action (C), 320 g/ha
Assay type: in vivo
Details: ca. 3 weeks
Procedure, shortened: as §4

SMILES | herbicidal effect LOLRI
c1ccc(-c2ccc3scnc3n2)cc1 [Example I-010] | 100%
Fc1ccc(-c2nc3ncsc3cc2Cl)c(F)c1 [Example I-127] | 80%

Tested on: Veronica persica (VERPE)
Test: Herbicidal pre-emergence action (C), 320 g/ha
Assay type: in vivo
Details: ca. 3 weeks
Procedure, shortened: as §4

SMILES | herbicidal effect VERPE
Fc1ccc(-c2nc3ncsc3cc2Cl)c(F)c1 [Example I-127] | 90%

Tested on: Setaria viridis (SETVI)
Test: Herbicidal pre-emergence action (C), 320 g/ha
Assay type: in vivo
Details: ca. 3 weeks
Procedure, shortened: as §4

SMILES | herbicidal effect SETVI
c1ccc(-c2ccc3scnc3n2)cc1 [Example I-010] | 100%
Fc1ccc(-c2nc3ncsc3cc2Cl)c(F)c1 [Example I-127] | 100%

Tested on: Matricaria inodora (MATIN)
Test: Herbicidal pre-emergence action (C), 320 g/ha
Assay type: in vivo
Details: ca. 3 weeks
Procedure, shortened: as §4

SMILES | herbicidal effect MATIN
Fc1ccc(-c2nc3ncsc3cc2Cl)c(F)c1 [Example I-127] | 80%

Tested on: Digitaria sanguinalis (DIGSA)
Test: Herbicidal pre-emergence action (C), 320 g/ha
Assay type: in vivo
Details: ca. 3 weeks
Description: (§5) Seeds of mono- and dicotyledonous weed plants and crop plants were sown, in plastic or organic planting pots, in sandy loam and covered with soil. The compounds according to the invention, formulated in the form of wettable powders (WP) or as emulsifiable concentrates (EC), were applied to the surface of the covering soil as aqueous suspension or emulsion, with the addition of 0.5% of an additive, at an application rate of 600 l of water/ha (converted).
(§6) Following treatment, the pots were placed in a greenhouse and kept under optimum growth conditions for the test plants. The visual grading of the damage to the test plants was carried out after ca. 3 weeks in comparison to untreated controls (herbicidal effect in percent (%): 100% effect=plants have died off, 0% effect=as control plants).
(§7) Tables C1 to C13 below show the effects of selected compounds of the general formula (I) according to table 1 on various harmful plants and an application rate corresponding to 320 g/ha obtained by the experimental procedure mentioned above.

SMILES | herbicidal effect DIGSA
c1ccc(-c2ccc3scnc3n2)cc1 [Example I-010] | 100%

Tested on: Avena fatua
Test: Herbicidal pre-emergence action (C), 320 g/ha
Assay type: in vivo
Details: ca. 3 weeks
Description: as §5, §6, §7

SMILES | herbicidal effect AVEFA
Fc1ccc(-c2nc3ncsc3cc2Cl)c(F)c1 [Example I-127] | 90%
